The record followed here is publication PMC5399312 (Journal of Experimental & Clinical Cancer Research : CR, 2017).

Series [1] relates to SW480 cells. The experiment in a line: Determination of lactate generation. The class given is cell-based, human. The settings on record: 48 h; versus untreated or Met treated control. The method, then:
After 48 h drug treatment, media was collected and assayed following the manufacturer’s instructions of Lactic Acid Production Detection kit (KeyGen, Nanjing, China) to measure the generation of lactic acid. The assay was determined using a plate reader (Synergy HT, BioTek, USA) at 530 nm. Met was used as a positive control.

Series [2] has as its system SW480 cells. The experiment in a line: Soft agar colony formation assay. The class given is cell-based, human. The settings on record: 100 μM. The method, then: About 0.6% agar was poured into the six-well plate. […] Media was changed every three days, and colonies were further observed for 10 days. Colonies were then stained with 0.01% of crystal violet staining solution for 2 h.

The test system of a further series is MCF-7. Nature of the series: Cytotoxicity test (CCK-8). The settings on record: Homo sapiens, MCF7; MCF-7, 48 h. Type of series: cell-based. The method, then: (§1) Met was used as a positive control. All experiments were performed in triplicate.
In another series the test system is Lovo. Nature of the series: Cytotoxicity test (CCK-8). The class given is cell-based. The following applies: Homo sapiens, 48 h. The method, then:
as §1

Another series has as its system HCT116. The experiment in a line: Cytotoxicity test (CCK-8). The class given is cell-based. The following applies: Homo sapiens, HCT-116; HCT116, 48 h. The method, then:
as §1

Another series relates to SW480. The experiment in a line: Cytotoxicity test (CCK-8). Type of series: cell-based. The settings on record: Homo sapiens, SW480, 48 h. The method, then:
as §1

For another series, the system named is SMMC-7721. The experiment in a line: Cytotoxicity test (CCK-8). The class given is cell-based. The following applies: Homo sapiens, SMMC-7721, 48 h. The method, then:
as §1

The nature of series [3]: Cytotoxicity test (CCK-8). Type of series: cell-based. The method, then:
as §1

Series [4] concerns SW480 xenograft tumor tissues. Nature of the series: TUNEL and H&E staining assay. The class given is in vivo. The settings on record: versus vehicle control. The method, then: Apoptosis of tumor tissues was detected by terminal deoxynucleotidyl transferase (TdT)-mediated dUTP-biotin nick end labeling (TUNEL) stain, using an In Situ Cell Death Detection Kit (Roche, Switzerland). The hematoxylin-eosin (H&E) staining was performed to observe the pathological changes in different groups.

Another series relates to p-AMPKα in SW480 cells. The experiment in a line: Western blot analysis. The class given is cell-based, human. The settings on record: 75, 150 and 300 μM. The method, then:
The harvested cells were lysed with radioimmunoprecipitation assay (RIPA) buffer (Beyotime, China). Insoluble debris was removed by centrifugation and the concentration of total proteins was determined using BCA Protein Assay Kit (Beyotime, China). Then lysate protein (20-40 μg) was subjected to 10% SDS-PAGE and electrophoretically transferred to polyvinylidene difluoride membranes (PVDF) (Millipore, USA). […] Protein bands were visualized using an enhanced chemiluminescence reagent (ECL Plus) (GE Healthcare, USA) after hybridization with a HRP conjugated secondary antibody. All experiments were performed in triplicate and analyzed by optical density.
A general note: In western blotting, separated proteins are transferred to a membrane and probed.

Series [5] concerns SW480 cells. Nature of the series: Measurement of intracellular ATP level. The class given is cell-based, human. The settings on record: 75, 150 and 300 μM, 48 h. The method, then: After centrifugation, supernatants were assayed by ATP assay kit (KeyGen, Nanjing, China) to determine the generation of ATP. The assay was determined using the plate reader (Synergy HT, BioTek, USA) at 636 nm.

Series [6] concerns SW480 cells transfected with HK2 siRNA. Nature of the series: HK2 siRNA knock-down, CCK-8 cytotoxicity. Type of series: cell-based, human. The settings on record: compared with negative control siRNA cells. From the text: SW480 cells were transfected with either two siRNAs against HK2 or one nontargeting siRNA and cultured in 6-well plates according to the manufacturer’s instructions. The target sequences of oligo siRNAs were as follows: siRNA: 5'- […] -3', nontargeting siRNA (Negative control, NC): 5'- […] -3' [21].

In series [7] the test system is SW480 cells. The experiment in a line: Flow cytometric analysis for apoptosis (Annexin-V/PI). Type of series: cell-based, human. The following applies: 48 h, control 0.7%. The method, then: Then the cells were harvested, washed twice with ice-cold PBS, and mixed in 100 μL of 1× binding buffer (10 mM HEPES/ NaOH, pH 7.4, 140 mM NaCl, 2.5 mM CaCl2). After culturing for 15 min at room temperature in Annexin-V/PI double staining liquid (Nanjing KeyGen Biotech. Inc.), the cells were examined by flow cytometry (BD Biosciences, FACSCalibur).
(A flow cytometer gives signals particle by particle.)

Series [8] relates to SW480 cells. Nature of the series: Glucose uptake assay. Type of series: cell-based, human. The settings on record: 48 h; versus untreated or Met treated control. The method, then:
The Glucose Assay Kit (Rsbio, Shanghai, China) was used to analyse the glucose uptake. After 48 h drug treatment, media was collected and diluted within water. The amount of glucose in the media was then detected. Glucose uptake was determined by subtracting the amount of glucose in each sample from the total amount of glucose in the media (without cells). Met was used as a standard control in this assay.

Another series has as its target T1, G6P-DH (Leuconostoc mesenteroides, UniProt P11411).
T1 construct: purchased Roche (Switzerland)
T1 sequence (P11411 1-486): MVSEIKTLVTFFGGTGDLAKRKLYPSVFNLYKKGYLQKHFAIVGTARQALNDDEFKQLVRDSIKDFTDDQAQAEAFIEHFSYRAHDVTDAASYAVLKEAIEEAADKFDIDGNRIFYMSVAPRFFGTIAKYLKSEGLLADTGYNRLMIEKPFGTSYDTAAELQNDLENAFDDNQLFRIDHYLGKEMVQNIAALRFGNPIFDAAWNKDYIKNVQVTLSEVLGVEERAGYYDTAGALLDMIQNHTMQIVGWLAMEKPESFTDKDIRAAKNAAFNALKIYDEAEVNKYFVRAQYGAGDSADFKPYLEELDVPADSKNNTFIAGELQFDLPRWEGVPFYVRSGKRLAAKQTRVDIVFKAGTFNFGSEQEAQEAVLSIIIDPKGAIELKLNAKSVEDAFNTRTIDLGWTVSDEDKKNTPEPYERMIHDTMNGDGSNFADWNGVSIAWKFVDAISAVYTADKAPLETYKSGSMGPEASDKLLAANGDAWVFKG
The experiment in a line: Interference with coupling enzyme. Type of series: biochemical. The method, then:
Then 85 μL assay mix containing 100 mM Tris HCl pH 8.0, 5 mM MgCl2, 200 mM Glucose, 0.8 mM ATP, 1 mM NAD^+, 0.25 Units of G6P-DH, was added.

Series [9] can be described thus: Detection of free Benz in tumor tissue (HPLC). Type of series: in vivo, mouse. The following applies: 600 mg/Kg Benz-treated group. The method, then:
After recording the weights of tumor mass, tumor tissues from 600 mg/Kg Benz-treated group and 200 mg/Kg liposomal Benz-treated group were lightly washed and blotted to remove any excess blood. Then tumor tissues were homogenized and extracted with methanol, and 100 μL of the extracts were then subjected to HPLC assay. HPLC analysis was conducted by using a reverse phase column (Restek C18 5 μm, 250 mm × 4.6 mm) with a mobile phase of methanol-water- trifluoroacetic acid (20: 1000: 1).

Broadly, the IC50 is the midpoint of a concentration-inhibition curve. Read a high IC50 as weaker potency. With `NC(CO)C(=O)NNCc1ccc(O)c(O)c1O` (stereo not shown) [Benz, Benserazide], in the series on SW480 cells [1], the “concentration of lactate in cell culture supernatant” value is “remarkably decreased”. Also, in the series on SW480 cells [2], the “anchorage-independent growth (colony formation)” value is reported as “dramatically reduced the ability to form colonies”. Moreover, the half-maximal inhibitory concentration (IC50) with MCF-7 was found to be 186 ± 12.5 µM; with Lovo it was 151 ± 4.5 µM; with HCT116, 181 ± 11.5 µM; with SW480 it was 143 ± 7 µM; with SMMC-7721, 210 ± 7.9 µM. The half-maximal inhibitory concentration (IC50) at 48 h in [3] (African green monkey, Vero normal cells) was greater than 500 µM; in series [3] (human, LO2 normal cells), greater than 500 µM. For the same molecule, the “tumor apoptosis and pathological changes (TUNEL, H&E)” value in series [4] is “induced tumor apoptosis and pathological changes”. Also, in the series with p-AMPKα in SW480 cells, the “phosphorylation of AMPKα” value is reported as “increased”. Moreover, the “intracellular ATP level” value in the series on SW480 cells [5] was “reduced”. For the same molecule, in [6], the “cytotoxicity to HK2 siRNA transfected cells” value is recorded as “fewer effects”. In addition, the apoptotic death with SW480 cells [7] (75 μM) was found to be 10.4%; with SW480 cells [7] (150 μM) it was 22.5%; in the series with SW480 cells [7] (300 μM), 44.1%. Also, the glucose uptake result in the series on SW480 cells [8] is “significantly lower”. The “interference with G6P-DH activity” value on G6P-DH was “No Benz interference”. Further, the “average concentration of free Benz in tumor tissue” value in [9] is 5.59 µg/mg.
